This note sets out measurements from patent publication US20010044151A1, “Ligands for modulating the expression of exogenous genes via an ecdysone receptor complex” (priority 1998, published 2001).

Structures are written as SMILES.

In the experiment the target is T1, VgEcR and RXR heterodimeric receptor (pVgRXR) with pIND/luc in CHO cells (Drosophila melanogaster, UniProt P34021, E282G/G283S/G286V).
T1 construct: host or cells: CHO cells (ATCC CCL-61), transiently transfected or stably transformed with pVgRXR
T1 sequence (P34021 1-878 E282G/G283S/G286V): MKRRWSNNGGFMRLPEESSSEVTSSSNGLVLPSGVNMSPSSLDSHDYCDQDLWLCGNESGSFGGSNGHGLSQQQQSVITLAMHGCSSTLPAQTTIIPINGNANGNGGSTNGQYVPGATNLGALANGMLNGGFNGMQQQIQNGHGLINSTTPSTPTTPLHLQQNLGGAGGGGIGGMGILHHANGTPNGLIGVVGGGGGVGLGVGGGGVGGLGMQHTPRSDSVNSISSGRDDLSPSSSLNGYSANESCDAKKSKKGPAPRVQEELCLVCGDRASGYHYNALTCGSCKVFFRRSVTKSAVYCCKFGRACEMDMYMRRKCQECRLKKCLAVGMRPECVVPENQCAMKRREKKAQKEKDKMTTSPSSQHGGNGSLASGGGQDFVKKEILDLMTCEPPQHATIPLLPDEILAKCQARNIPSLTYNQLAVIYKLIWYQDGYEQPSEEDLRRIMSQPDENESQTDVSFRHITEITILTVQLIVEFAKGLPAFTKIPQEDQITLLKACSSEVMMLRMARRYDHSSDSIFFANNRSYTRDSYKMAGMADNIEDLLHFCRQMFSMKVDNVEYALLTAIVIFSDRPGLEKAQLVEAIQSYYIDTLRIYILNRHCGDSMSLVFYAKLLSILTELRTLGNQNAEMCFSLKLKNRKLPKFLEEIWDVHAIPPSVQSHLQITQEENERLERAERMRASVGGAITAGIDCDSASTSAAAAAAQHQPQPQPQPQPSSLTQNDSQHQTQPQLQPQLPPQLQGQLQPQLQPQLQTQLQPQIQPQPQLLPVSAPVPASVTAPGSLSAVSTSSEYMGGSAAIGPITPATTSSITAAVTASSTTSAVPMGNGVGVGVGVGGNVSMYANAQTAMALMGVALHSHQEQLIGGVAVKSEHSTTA
T1 sequence (P19793 1-462 partner): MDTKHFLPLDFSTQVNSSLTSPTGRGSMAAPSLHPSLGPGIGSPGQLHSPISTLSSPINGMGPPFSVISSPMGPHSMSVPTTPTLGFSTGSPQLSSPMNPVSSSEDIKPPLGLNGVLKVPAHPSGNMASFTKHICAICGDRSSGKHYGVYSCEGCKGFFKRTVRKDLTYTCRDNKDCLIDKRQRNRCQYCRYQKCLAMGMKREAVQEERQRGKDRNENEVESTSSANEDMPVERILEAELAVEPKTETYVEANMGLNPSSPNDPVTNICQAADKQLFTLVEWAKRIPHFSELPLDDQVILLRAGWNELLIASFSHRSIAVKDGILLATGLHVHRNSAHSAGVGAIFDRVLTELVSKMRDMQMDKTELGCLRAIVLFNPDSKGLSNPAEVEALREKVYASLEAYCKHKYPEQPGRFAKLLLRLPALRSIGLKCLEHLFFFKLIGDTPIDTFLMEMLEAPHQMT
The experiment can be described thus: Luciferase gene activation in transiently transfected CHO cells. The format is cell-based. The conditions noted are these: ligand 10 μM; for Luciferase activity: average of duplicate samples, no ligand = 42; for Induction Ratio (RLU in presence and absence of the ligand): luciferase. The source says: pVgRXR (Invitrogen Corp., Carlsbad, Calif.) is an […] plasmid that expresses both VgEcR and RXR to form a modified heterodimeric nuclear receptor (see No, D., et. al., (1996) Proc. Natl. Acad. Sci. USA, 93, 3346-3351). The ecdysone receptor (VgEcR) is derived from the natural Drosophila ecdysone receptor and modified to contain the VP16 transactivation domain (see Cress, W. D., and Triezenberg, S. J. (1991), Science 251, 87-90; Sadowski, I., et. al (1988) Nature 335, 563-564; Triezenberg, S. J et. al., (1988), Genes Dev 2, 718-729; Triezenberg, S. J., et. al., (1988), Genes Dev 2, 730-742). RXR as the mammalian homologue of USP (ultraspiracle), the natural partner to the Drosophila ecdysone receptor (see Yao, T. -P., et. al., (1993), Nature 366, 476-479, Yao, T. -P., et. al., (1992), Cell 71, 63-72). The P-box region of the VgEcR DNA binding domain was modified to recognize the hybrid ecdysone response element that consists of one half-site from the gluccorticoid response element (see Umesono, K., and Evans, R. M. (1989), Cell 57, 1139-1146) and one half-site from the natural ecdysone response element. This hybrid response element reduces any possible interaction with the farsenoid X receptor that may bind the natural ecdysone responsive element (EcRE). The cytomegalovirus enhancer-promoter drives expression of VgEcR, and the Rous sarcoma virus promoter drives expression of RXR. The vector pIND (Invitrogen Corp) is a 5024 bp vector based on pcDNA3.1. It contains five hybrid E/GREs recognized by the modified ecdysone receptor expressed from pVgRXR and a minimal heat shock promoter (see Yao, T. P., et. al., (1993), Nature, 366, 476-479). pIND/lacZ (Invitrogen Crop.) is a 8170 bp plasmid that contains the β-galactosidase gene as a reporter enzyme. Cotransfection of pIND/lacZ and pVgRXR results in the induction of β-galactosidase expression upon addition of ecdysone agonists such as muristerone A. The reporter plasmid pIND/luc was constructed by subcloning the firefly luciferase gene from pGL3 (Promega/E1741) as a Nhe I-BamHI fragment into pIND, also digested with Nhe I and BamHI.
CHO cells (ATCC #CCL-61) were maintained by F-12 Nutrient mixture (Ham's media) (Gibco/BRL, 11765-054) supplemented with 10% fetal bovine serum, (FBS, complete medium; Gibco/BRL, 16000-036). These cells were maintained at 37° C. in 5% CO2 in 95% atmospheric air.
The CHO cells were seeded into 12-well tissue culture plates at a concentration of 0.5×10^5 cells per ml per well. The lipid Pfx-8 (Invitrogen, T930-18) was used to transiently transfect the ecdysone inducible expression system (Invitrogen catalog number K1000-01). The ecdysone inducible expression system consists of pVgRXR, encoding the receptor subunits, and pIND/lacZ or pIND/luc, containing the response element and a reporter gene encoding β-galactosidase or luciferase respectively. Twenty-four hours after seeding cells, the lipid/DNA solution was prepared by 0.5 mg/ml of VgRXR and 0.5 mg/ml pIND/lacZ or pIND/luc DNAs in sterile water. Thirty-six μl of Pfx-8 was diluted in a sterile 17×100 mm polystyrene tube containing 1.5 ml Opti-MEM medium (Gibco/BRL, 31985). Six μl of the plasmid DNA stock was mixed with 1.5 ml of Opti-MEM medium in another polystyrene tube. The DNA and the lipid solutions were combined to make 3 ml of transfection solution (enough for one set of triplicate samples). Cells were washed with phosphate buffered solution (PBS; Gibco/BRL, 14190-144) three times by aspirating medium from the cells. One ml transfection solution was added per well. Cells were incubated for four hours, and the transfection medium replaced with the same volume of complete medium. Cells were incubated for an additional 20 hours.
Stock solutions (10^−2 M) were prepared for muristerone A and the non-steroidal ligands of the present invention in ethanol and acetone respectively, and stored at −20° C. […]

Take `Cc1cc(C)cc(C(=O)N(NC(=O)c2ccc3c(c2C)OCCO3)C(C)(C)C)c1` [Ligand 2]: the Luciferase activity is listed as 204 RLU; the “Induction Ratio (RLU in presence and absence of the ligand)” value (“Induction Ratio” for short) turned out to be 5.

On to `CC(C)(C)N(NC(=O)c1ccccc1)C(=O)c1ccccc1` [CE-2, 1,2-dibenzoyl-1-tert-butyl-hydrazine, reference compound], for which the Luciferase activity is given as 36 RLU; the “Induction Ratio” value is reported as 1.

Consider `CCc1c(OC)cccc1C(=O)NN(C(=O)c1cc(F)cc(F)c1)C(C)(C)C` [Ligand 4], for which the Luciferase activity turned out to be 251 RLU; the “Induction Ratio” value is on record as 6.

For `CCc1c(OC)cccc1C(=O)NN(C(=O)c1cccc(OC)c1)C(C)(C)C` [Ligand 1], the Luciferase activity was determined as 275 RLU; the “Induction Ratio” value was 7.

Consider `CC(C)CC[C@@H](O)[C@](C)(O)[C@H]1CC[C@@]2(O)C3=CC(=O)[C@]4(O)C[C@@H](O)[C@@H](O)C[C@]4(C)[C@H]3[C@H](O)C[C@]12C` [CE-3, muristerone A, reference compound], for which the Luciferase activity was determined as 316 RLU; the “Induction Ratio” value is on record as 8.

As for `COc1cccc(C(=O)NN(C(=O)c2cc(C)cc(C)c2)C(C)(C)C)c1C` [Ligand 3], the Luciferase activity is listed as 324 RLU; the “Induction Ratio” value stood at 8.

Consider `CC(C)CC[C@@H](O)[C@](C)(O)[C@H]1CC[C@@]2(O)C3=CC(=O)[C@@H]4C[C@@H](O)[C@@H](O)C[C@]4(C)[C@H]3CC[C@]12C` [CE-4, ponasterone A, reference compound], for which the Luciferase activity was determined as 418 RLU; the “Induction Ratio” value was determined as 10.

Turning to `CCc1c(OC)cccc1C(=O)NN(C(=O)c1cc(Cl)cc(Cl)c1)C(C)(C)C` [Ligand 13], the Luciferase activity is 226 RLU; the “Induction Ratio” value is 5.

For the compound `CCc1c(OC)cccc1C(=O)NN(C(=O)c1cc(C)cc(C)c1)C(C)(C)C` [Ligand 5], the Luciferase activity is given as 313 RLU; the “Induction Ratio” value is reported as 8.

Turning to `CCc1ccc(C(=O)NN(C(=O)c2cc(C)cc(C)c2)C(C)(C)C)cc1` [CE-1, N-(4-ethylbenzoyl)-N′-(3,5-dimethylbenzoyl)-N′-tert-butyl-hydrazine, reference compound], the Luciferase activity was found to be 89 RLU; the “Induction Ratio” value was 2.

Take `CCOc1cccc(C(=O)NN(C(=O)c2cc(C)cc(C)c2)C(C)(C)C)c1CC` [Ligand 12]: the Luciferase activity came out at 305 RLU; the “Induction Ratio” value worked out at 7.
